“Also recorded” adds a separate entry of the source.
Biological target: eIF4A (Homo sapiens, UniProt P60842)
Assay: Cellular Thermal Shift Assay (CETSA) in A549 cells
Assay type: cell-based
Parameters: endogenous in cells; host or cells: A549 cells
Settings: 90 min, 55° C., silvestrol 100 nM
Procedure: In CETSA, thermal stability of a protein is assessed by heating cells and then separating insoluble, aggregated, or denatured proteins from soluble proteins through supernatant/pellet fractionation. Levels of the protein of interest (eIF4A) remaining in the soluble fraction are then measured by western blot. The principle of CETSA is similar to differential scanning fluorimetry (DSF), in that thermal stability and solubility of a protein increases upon binding a ligand.
Cellular Thermal Shift Assay (CETSA). A549 cells were seeded into wells in 6-well plates and on the following day were exposed to 28 or silvestrol (100 nM) for 90 min. Cells were harvested, resuspended in 50 μL DMEM, and dispensed into thin-walled PCR tubes. Cells were subjected to 3 min of heat at 55° C. in a thermocycler (miniPCR). After heating, cells were left to cool for 3 min and then snap-frozen on dry ice. Cells were subjected to 3 rapid freeze thaws with 15 seconds of vortexing after each thaw. After the first thaw, 1 μL of a dissolved Pierce protease inhibitor tablet (ThermoFisher—A32963) was added to the cell lysate. Cell lysates were centrifuged at 20,000×g for 20 min. […] All immunoblot images were taken using the Azure 600 imaging system (Azure Biosystems) and analyzed using ImageJ 1.51s (NIH). […]

eIF4A, sequence (P60842 2-406): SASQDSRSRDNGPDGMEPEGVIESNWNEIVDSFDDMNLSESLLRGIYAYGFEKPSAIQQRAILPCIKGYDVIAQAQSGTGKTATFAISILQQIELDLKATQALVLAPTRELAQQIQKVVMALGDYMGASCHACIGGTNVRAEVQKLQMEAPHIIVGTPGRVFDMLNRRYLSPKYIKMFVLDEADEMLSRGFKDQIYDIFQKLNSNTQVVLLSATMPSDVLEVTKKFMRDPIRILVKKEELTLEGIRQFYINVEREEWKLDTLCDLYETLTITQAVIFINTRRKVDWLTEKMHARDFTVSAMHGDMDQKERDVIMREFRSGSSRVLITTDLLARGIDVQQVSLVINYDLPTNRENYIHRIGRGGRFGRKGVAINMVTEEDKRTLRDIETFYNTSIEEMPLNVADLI

SMILES: CCCCc1ccc(-c2ccc(-c3cc(C(=O)O)c4cc([N+](=O)[O-])ccc4n3)o2)cc1 [Compound 28, 2-(5-(4-butylphenyl)furan-2-yl)-6-nitroquinoline-4-carboxylic acid]
- thermal stability of eIF4A in cells (CETSA): dose-dependent increase in thermal stability of eIF4A; also recorded: engages eIF4A in cells

Reference: patent publication US20240360107A1, “AN EIF4A INHIBITOR WITH A NOVEL MECHANISM OF ACTION” (ARIZONA BOARD OF REGENTS ON BEHALF OF THE UNIVERSITY OF …, priority 2021, published 2024)
